Test results published in patent US20230117034A1, “PYRAZOLOTRIAZINES” (Bayer Aktiengesellschaft, priority 2019, published 2023).

Key:
CDK2/CycE = biological target: T1, CDK2/CycE (Homo sapiens, UniProt P24941); assay: CDK2/CycE kinase assay (TR-FRET, 2 mM ATP); assay type: biochemical; conditions: 2 mM ATP (high ATP); median; read-out: CDK2/CyclinE, 2 mM ATP (high ATP), IC50 (median)
T1 construct: purchased ProQinase GmbH (Freiburg, Germany); host or cells: insect cells (Sf9)
In short: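 Biotin-peptide phosphorylation (0.75 µM substrate, 2 mM ATP final, 25 min, 22 °C) by Sf9-expressed GST-CDK2/GST-CycE, after a 15-min compound pre-binding step. Inhibition scaled between enzyme-free (100%) and uninhibited (0%) wells.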

[1] = biological target: T2, CDK12 (nuclear staining in CAL-120 cells) (Homo sapiens, UniProt Q9NYV4); assay: CDK12 nuclear protein level: immunofluorescence/high content analysis (CAL-120); assay type: cell-based; conditions: for DC50: CAL-120 cells, 24 h, immunofluorescence, 50% reduction of nuclear CDK12 staining intensity, median, read-out: CDK12 degradation IF, DC50- [mol/l] (median); for (IC50 CDK12 high ATP) to (Degradation DC50 CDK12) ratio: ratio of IC50 CDK12 high ATP kinase assay to DC50 CDK12 degradation (IF, CAL-120)
T2 construct: endogenous in cells; host or cells: CAL-120 human breast cancer cells (DSMZ ACC 459)
T2 sequence (Q9NYV4 whole entry): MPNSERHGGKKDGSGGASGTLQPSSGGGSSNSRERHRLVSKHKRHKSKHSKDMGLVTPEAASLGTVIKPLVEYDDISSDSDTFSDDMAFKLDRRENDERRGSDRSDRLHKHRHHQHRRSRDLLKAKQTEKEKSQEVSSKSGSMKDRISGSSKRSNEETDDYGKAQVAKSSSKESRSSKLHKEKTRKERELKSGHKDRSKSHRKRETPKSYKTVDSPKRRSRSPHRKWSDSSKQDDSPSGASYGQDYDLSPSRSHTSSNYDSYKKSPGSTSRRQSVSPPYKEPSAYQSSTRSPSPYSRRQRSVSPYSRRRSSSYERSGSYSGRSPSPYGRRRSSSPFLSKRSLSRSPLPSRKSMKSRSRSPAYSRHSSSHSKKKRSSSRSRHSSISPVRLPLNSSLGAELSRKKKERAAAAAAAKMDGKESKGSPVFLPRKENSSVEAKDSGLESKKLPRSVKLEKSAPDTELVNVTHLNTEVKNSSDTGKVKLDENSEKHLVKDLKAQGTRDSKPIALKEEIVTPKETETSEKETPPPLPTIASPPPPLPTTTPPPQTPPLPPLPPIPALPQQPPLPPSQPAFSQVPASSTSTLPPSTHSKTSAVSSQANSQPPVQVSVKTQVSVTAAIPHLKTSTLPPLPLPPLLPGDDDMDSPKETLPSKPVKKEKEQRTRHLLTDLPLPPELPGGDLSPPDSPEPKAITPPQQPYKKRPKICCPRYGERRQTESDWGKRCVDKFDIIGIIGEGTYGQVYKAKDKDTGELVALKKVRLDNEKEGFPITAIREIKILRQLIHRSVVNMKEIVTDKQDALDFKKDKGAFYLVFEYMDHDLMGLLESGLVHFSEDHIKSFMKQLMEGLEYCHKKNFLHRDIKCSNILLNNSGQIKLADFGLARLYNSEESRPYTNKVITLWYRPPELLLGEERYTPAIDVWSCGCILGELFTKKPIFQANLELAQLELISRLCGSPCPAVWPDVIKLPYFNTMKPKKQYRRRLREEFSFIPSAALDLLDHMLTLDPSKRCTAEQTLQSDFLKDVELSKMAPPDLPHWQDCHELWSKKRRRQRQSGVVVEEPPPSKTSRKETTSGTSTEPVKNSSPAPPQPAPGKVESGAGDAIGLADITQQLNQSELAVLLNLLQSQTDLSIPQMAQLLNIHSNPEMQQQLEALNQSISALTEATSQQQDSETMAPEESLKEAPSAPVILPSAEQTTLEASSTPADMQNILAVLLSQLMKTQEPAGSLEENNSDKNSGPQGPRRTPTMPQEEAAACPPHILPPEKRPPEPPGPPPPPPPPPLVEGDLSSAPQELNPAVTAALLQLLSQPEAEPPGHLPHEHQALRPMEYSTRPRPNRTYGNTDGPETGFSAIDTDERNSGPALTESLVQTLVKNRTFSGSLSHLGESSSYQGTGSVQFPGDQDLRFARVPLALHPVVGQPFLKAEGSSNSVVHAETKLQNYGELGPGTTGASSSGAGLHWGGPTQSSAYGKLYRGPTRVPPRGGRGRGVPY
T2 sequence (O75909 whole entry partner): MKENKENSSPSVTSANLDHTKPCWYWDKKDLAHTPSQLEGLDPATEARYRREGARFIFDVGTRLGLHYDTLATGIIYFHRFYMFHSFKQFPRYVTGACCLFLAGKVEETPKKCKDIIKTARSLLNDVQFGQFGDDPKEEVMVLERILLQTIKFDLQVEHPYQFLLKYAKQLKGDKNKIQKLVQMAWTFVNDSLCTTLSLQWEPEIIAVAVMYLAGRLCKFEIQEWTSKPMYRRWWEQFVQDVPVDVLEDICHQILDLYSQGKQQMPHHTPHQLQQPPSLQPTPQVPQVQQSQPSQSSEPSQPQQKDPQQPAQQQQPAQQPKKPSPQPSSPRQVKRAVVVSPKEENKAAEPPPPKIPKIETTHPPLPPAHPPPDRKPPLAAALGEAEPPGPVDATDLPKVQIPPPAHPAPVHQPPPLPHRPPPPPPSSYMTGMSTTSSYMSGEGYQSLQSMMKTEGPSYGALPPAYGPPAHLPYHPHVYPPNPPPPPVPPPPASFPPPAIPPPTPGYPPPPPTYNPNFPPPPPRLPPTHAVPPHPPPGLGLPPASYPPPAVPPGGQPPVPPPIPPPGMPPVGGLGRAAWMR
In short: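 DC50 is the degrader concentration that halves nuclear CDK12 immunofluorescence relative to controls, measured by high-content imaging. CAL-120 cells were exposed to compound for 24 h at 37 °C before PFA fixation, and signal was normalized to DMSO and control wells.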

CDK9/CycT1 = biological target: T3, CDK9/CycT1 (Homo sapiens, UniProt P50750); assay: CDK9/CycT1 high ATP kinase assay (TR-FRET, 2 mM ATP); assay type: biochemical; conditions: 2 mM ATP (high ATP); median; read-out: CDK9/CyclinT1, 2 mM ATP (high ATP), IC50 (median)
T3 construct: Recombinant full-length His-tagged human CDK9 and CycT1; purchased Life Technologies PV4131; host or cells: insect cells
T3 sequence (P50750 whole entry): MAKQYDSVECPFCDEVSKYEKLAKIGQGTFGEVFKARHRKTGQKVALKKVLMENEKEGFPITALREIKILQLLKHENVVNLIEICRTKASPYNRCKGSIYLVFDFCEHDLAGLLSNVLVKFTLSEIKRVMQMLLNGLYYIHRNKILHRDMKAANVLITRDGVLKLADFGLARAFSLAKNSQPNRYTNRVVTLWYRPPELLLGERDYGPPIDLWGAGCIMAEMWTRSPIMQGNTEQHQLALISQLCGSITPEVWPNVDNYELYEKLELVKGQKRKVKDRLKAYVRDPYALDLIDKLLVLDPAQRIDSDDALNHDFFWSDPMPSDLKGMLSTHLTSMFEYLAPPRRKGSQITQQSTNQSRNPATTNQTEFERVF
T3 sequence (O60563 whole entry partner): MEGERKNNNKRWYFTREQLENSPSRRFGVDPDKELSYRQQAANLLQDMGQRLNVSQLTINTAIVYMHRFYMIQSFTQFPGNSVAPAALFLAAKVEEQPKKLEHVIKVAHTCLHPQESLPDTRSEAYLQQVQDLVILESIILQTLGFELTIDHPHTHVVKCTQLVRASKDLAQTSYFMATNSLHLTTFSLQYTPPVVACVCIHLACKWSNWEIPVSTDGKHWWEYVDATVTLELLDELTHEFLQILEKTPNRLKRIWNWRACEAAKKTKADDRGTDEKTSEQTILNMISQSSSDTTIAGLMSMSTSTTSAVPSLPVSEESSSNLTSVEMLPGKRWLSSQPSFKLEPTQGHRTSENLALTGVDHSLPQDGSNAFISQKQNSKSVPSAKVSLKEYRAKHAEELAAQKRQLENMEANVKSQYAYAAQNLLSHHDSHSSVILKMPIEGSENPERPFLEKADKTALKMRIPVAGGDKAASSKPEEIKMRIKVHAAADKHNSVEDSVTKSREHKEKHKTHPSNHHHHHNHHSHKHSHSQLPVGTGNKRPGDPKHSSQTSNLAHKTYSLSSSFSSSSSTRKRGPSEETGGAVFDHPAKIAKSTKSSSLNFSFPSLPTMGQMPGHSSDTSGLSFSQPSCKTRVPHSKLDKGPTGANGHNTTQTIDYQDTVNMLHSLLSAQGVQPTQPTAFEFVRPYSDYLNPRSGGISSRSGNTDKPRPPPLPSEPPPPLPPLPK
In short: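 Full-length His-tagged human CDK9/CycT1 (insect cell, ~0.5 μg/mL) preincubated 15 min at 22 °C with compound in Tris pH 8.0, MgCl2, DTT buffer before reaction with biotinylated peptide substrate at high ATP (2 mM).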

Row | SMILES | IC50 (CDK2/CycE) | DC50 [1] | (IC50 CDK12 high ATP) to (Degradation DC50 CDK12) ratio [1] | IC50 (CDK9/CycT1)
1 | FC(F)(F)Oc1cccc2[nH]c(CNc3nc(N4C[C@H]5CC[C@@H](C4)N5)nc4c(Br)cnn34)nc12 [Example 381, 8-bromo-2-[(1R,5S)-3,8-diazabicyclo[3.2.1]octan-3-yl]-N-{[4-(trifluoromethoxy)-1H-benzimidazol-2-yl]methyl}pyrazolo[1,5-a][1,3,5]triazin-4-amine] | > 20000 nM | 22.2 nM | 266 | 14000 nM
2 | CN1CCN(c2nc(NCc3nc4c(OC(F)(F)F)cccc4[nH]3)n3ncc(Br)c3n2)CC1 [Example 376, 8-bromo-2-(4-methylpiperazin-1-yl)-N-{[4-(trifluoromethoxy)-1H-benzimidazol-2-yl]methyl}pyrazolo[1,5-a][1,3,5]triazin-4-amine] | > 20000 nM | 12.4 nM | >1615 | > 20000 nM
3 | Fc1cc2nc(CNc3nc(N4C[C@H]5CC[C@@H](C4)N5)nc4c(C5CC5)cnn34)[nH]c2cc1Cl [Example 328, N-[(6-chloro-5-fluoro-1H-benzimidazol-2-yl)methyl]-8-cyclopropyl-2-[(1R,5S)-3,8-diazabicyclo[3.2.1]octan-3-yl]pyrazolo[1,5-a][1,3,5]triazin-4-amine] | 14500 nM | 3.95 nM | 419 | 15000 nM
4 | Brc1cnn2c(NCc3nc4ccccc4[nH]3)nc(N3CCN4CCC3CC4)nc12 [Example 349, N-[(1H-benzimidazol-2-yl)methyl]-8-bromo-2-(1,4-diazabicyclo[3.2.2]nonan-4-yl)pyrazolo[1,5-a][1,3,5]triazin-4-amine] | 1820 nM | 9.89 nM | 877 | > 20000 nM
5 | Fc1cc2nc(CNc3nc(N4CCOCC4)nc4c(C(F)(F)F)cnn34)[nH]c2cc1F [Example 333, N-[(5,6-difluoro-1H-benzimidazol-2-yl)methyl]-2-(morpholin-4-yl)-8-(trifluoromethyl)pyrazolo[1,5-a][1,3,5]triazin-4-amine] | > 20000 nM | 2.31 nM | 61 | > 20000 nM
6 | CN1CCN(c2nc(NCc3nc4c(F)c(Cl)ccc4[nH]3)n3ncc(C4CC4)c3n2)CC1 [Example 371, N-[(5-chloro-4-fluoro-1H-benzimidazol-2-yl)methyl]-8-cyclopropyl-2-(4-methylpiperazin-1-yl)pyrazolo[1,5-a][1,3,5]triazin-4-amine] | > 20000 nM | 4.16 nM | 1263 | > 20000 nM
7 | Fc1c(Cl)ccc2[nH]c(CNc3nc(N4CC5CCC(C4)N5)nc4c(C5CC5)cnn34)nc12 [Example 379, N-[(5-chloro-4-fluoro-1H-benzimidazol-2-yl)methyl]-8-cyclopropyl-2-(3,8-diazabicyclo[3.2.1]octan-3-yl)pyrazolo[1,5-a][1,3,5]triazin-4-amine] | 14300 nM | 4.35 nM | 121 | 11300 nM
8 | CN1CCN(c2nc(NCc3nc4c(F)c(F)ccc4[nH]3)n3ncc(Cl)c3n2)CC1 [Example 358, 8-chloro-N-[(4,5-difluoro-1H-benzimidazol-2-yl)methyl]-2-(4-methylpiperazin-1-yl)pyrazolo[1,5-a][1,3,5]triazin-4-amine] | > 20000 nM | 5.33 nM | 2182 | > 20000 nM
9 | Clc1cc2nc(CNc3nc(N4CC5CCC(C4)N5)nc4c(C5CC5)cnn34)[nH]c2cc1Cl [Example 324, 8-cyclopropyl-2-(3,8-diazabicyclo[3.2.1]octan-3-yl)-N-[(5,6-dichloro-1H-benzimidazol-2-yl)methyl]pyrazolo[1,5-a][1,3,5]triazin-4-amine] | 13800 nM | 18 nM | 48 | 12300 nM
10 | Cc1cc2nc(CNc3nc(N4CC5CCC(C4)N5)nc4c(Br)cnn34)[nH]c2cc1C [Example 353, 8-bromo-2-(3,8-diazabicyclo[3.2.1]octan-3-yl)-N-[(5,6-dimethyl-1H-benzimidazol-2-yl)methyl]pyrazolo[1,5-a][1,3,5]triazin-4-amine] | 2860 nM | 12.4 nM | 203 | 12700 nM

Now from value to molecule:

Row | IC50 (CDK2/CycE) | DC50 [1] | (IC50 CDK12 high ATP) to (Degradation DC50 CDK12) ratio [1] | IC50 (CDK9/CycT1) | SMILES
11 | 1450 nM | 9.83 nM | 12 | 749 nM | Fc1cc(F)cc(-c2nnc(CNc3nc(N4CCOCC4)nc4c(C(F)(F)F)cnn34)[nH]2)c1 [Example 386, N-{[5-(3,5-difluorophenyl)-4H-1,2,4-triazol-3-yl]methyl}-2-(morpholin-4-yl)-8-(trifluoromethyl)pyrazolo[1,5-a][1,3,5]triazin-4-amine]
12 | 11900 nM | 3.9 nM | 295 | 10000 nM | Fc1ccc2[nH]c(CNc3nc(N4CCOCC4)nc4c(Cl)cnn34)nc2c1F [Example 357]
13 | 7500 nM | 1.12 nM | 2719 | 14400 nM | CN1CCN(c2nc(NCc3nc4c(F)c(Cl)ccc4[nH]3)n3ncc(Br)c3n2)CC1 [Example 373, 8-bromo-N-[(5-chloro-4-fluoro-1H-benzimidazol-2-yl)methyl]-2-(4-methylpiperazin-1-yl)pyrazolo[1,5-a][1,3,5]triazin-4-amine]
14 | 5570 nM | 9.52 nM | 190 | > 20000 nM | CN(CC(C)(C)O)c1nc(NCc2nc3c(F)cccc3[nH]2)n2ncc(Cl)c2n1 [Example 366, 1-[(8-chloro-4-{[(4-fluoro-1H-benzimidazol-2-yl)methyl]amino}pyrazolo[1,5-a][1,3,5]triazin-2-yl)(methyl)amino]-2-methylpropan-2-ol]
15 | 13500 nM | 16.9 nM | 169 | > 20000 nM | CN(CC(C)(C)O)c1nc(NCc2nc3cc(C(F)(F)F)ccc3[nH]2)n2ncc(C3CC3)c2n1 [Example 323, 1-{[8-cyclopropyl-4-({[5-(trifluoromethyl)-1H-benzimidazol-2-yl]methyl}amino)pyrazolo[1,5-a][1,3,5]triazin-2-yl](methyl)amino}-2-methylpropan-2-ol]
16 | 2300 nM | 5.68 nM | 925 | 16800 nM | Brc1cnn2c(NCc3nc4ccccc4[nH]3)nc(N3CC4CCC3CO4)nc12 (stereo not drawn) [Example 352, N-[(1H-benzimidazol-2-yl)methyl]-8-bromo-2-(2-oxa-5-azabicyclo[2.2.2]octan-5-yl)pyrazolo[1,5-a][1,3,5]triazin-4-amine]
17 | 10500 nM | 20.6 nM | >970 | > 20000 nM | CC[C@H](COC)Nc1nc(NCc2nc3ccccc3[nH]2)n2ncc(Br)c2n1 [Example 369, N4-[(1H-benzimidazol-2-yl)methyl]-8-bromo-N2-[(2R)-1-methoxybutan-2-yl]pyrazolo[1,5-a][1,3,5]triazine-2,4-diamine]
18 | 3120 nM | 1.81 nM | 85 | 1640 nM | CN(CC(C)(C)O)c1nc(NCc2nc3c(F)c(Cl)ccc3[nH]2)n2ncc(Br)c2n1 [Example 374, 1-[(8-bromo-4-{[(5-chloro-4-fluoro-1H-benzimidazol-2-yl)methyl]amino}pyrazolo[1,5-a][1,3,5]triazin-2-yl)(methyl)amino]-2-methylpropan-2-ol]
19 | 1740 nM | 23.6 nM | 247 | > 20000 nM | CN(c1nc(NCc2nc3ccccc3[nH]2)n2ncc(Br)c2n1)[C@H]1C[C@H](O)C1 [Example 365, trans-3-[(4-{[(1H-benzimidazol-2-yl)methyl]amino}-8-bromopyrazolo[1,5-a][1,3,5]triazin-2-yl)(methyl)amino]cyclobutan-1-ol]
20 | 7310 nM | 6 nM | 58 | 4900 nM | CN(CC(C)(C)O)c1nc(NCc2nc3cc(Cl)c(Cl)cc3[nH]2)n2ncc(Br)c2n1 [Example 331, 1-[(8-bromo-4-{[(5,6-dichloro-1H-benzimidazol-2-yl)methyl]amino}pyrazolo[1,5-a][1,3,5]triazin-2-yl)(methyl)amino]-2-methylpropan-2-ol]
21 | 6740 nM | 7.59 nM | 204 | 13800 nM | FC(F)(F)c1ccc2[nH]c(CNc3nc(N4CCOCC4)nc4c(Br)cnn34)nc2c1 [Example 339, 8-bromo-2-(morpholin-4-yl)-N-{[5-(trifluoromethyl)-1H-benzimidazol-2-yl]methyl}pyrazolo[1,5-a][1,3,5]triazin-4-amine]
